Measured values published in patent US20220411414A1, “INHIBITORS FOR THE B-CATENIN/B-CELL LYMPHOMA 9 (BCL9) PROTEIN-PROTEIN INTERACTION” (H. LEE MOFFITT CANCER CENTER AND RESEARCH INSTITUTE, INC., priority 2018, published 2022).

Columns and labels:
HCT116 = assay: MTs growth inhibition assay, HCT116; type: cell-based; conditions: Homo sapiens, HCT-116; Wnt/β-catenin-hyperactive, 72 h; read-out: MTs IC50 ± SD HCT116
Method: MTs cancer cell growth inhibition assays were conducted for 4 and 5. Three cancer cell lines with hyperactive Wnt/β-catenin signaling, SW480, HCT116, and MDA-MB-231. MTs cell viability assay. Colorectal cancer cell lines, SW480 and HCT116, and triple-negative breast cancer cell line MDA-MB-231 were seeded in 96-well plates at 4×10^3 cells/well, maintained overnight at 37° C., and incubated in the presence of 4 and 5 at various concentrations. Cell viability was monitored after 72 h using a freshly prepared mixture of 1 part phenazine methosulfate (PMS, Sigma) solution (0.92 mg/mL) and 19 parts 3-(4,5-dimethylthiazol-2-yl)-5-(3-carboxymethoxyphenyl)-2-(4-sulfophenyl)-2H-tetrazolium (MTs, Promega) solution (2 mg/mL). Cells were incubated in 10 μL of this solution at 37° C. for 3 h, and A490 was measured. The effect of each compound is expressed as the concentration required to reduce A490 by 50% (IC50) relative to vehicle-treated cells. Experiments were performed in triplicate.

[1] = test system: mRNA expression of AXIN2, LEF1, cyclin D1 (Wnt target genes); assay: Quantitative real-time PCR of Wnt target genes in SW480 cells; type: cell-based, human; conditions: SW480, 24 h, FIG. 2
Source text: House-keeper gene HERT was used as a reference. Each set of data is expressed as mean±standard deviation (n=3).
Axin2, cyclin D1, c-myc, and LEF1 are the target genes of the canonical Wnt signaling pathway. Axin 2 is a specific target gene for the canonical Wnt signaling pathway (a. Yan D, et al., Elevated expression of axin2 and hnkd mRNA provides evidence that Wnt/beta-catenin signaling is activated in human colon tumors. Proc Natl Acad Sci USA. 2001 Dec. 18; 98(26):14973-8; b. Jho E H, et al., Wnt/beta-catenin/Tcf signaling induces the transcription of Axin2, a negative regulator of the signaling pathway. Mol Cell Biol. 2002 February; 22(4):1172-83; c. Leung J Y, et al., Activation of AXIN2 expression by beta-catenin-T cell factor. A feedback repressor pathway regulating Wnt signaling. J Biol Chem. 2002 Jun. 14; 277(24):21657-65; d. Lustig B, et al., Negative feedback loop of Wnt signaling through upregulation of conductin/axin2 in colorectal and liver tumors. Mol Cell Biol. 2002 February; 22(4):1184-93). Cyclin D1 (a. Tetsu O, et al., Nature. 1999 Apr. 1; 398(6726):422-6; b. Sansom O J, et al., Cyclin D1 is not an immediate target of beta-catenin following Apc loss in the intestine. J Biol Chem. 2005 Aug. 5; 280(31):28463-7; c. Shtutman M, et al., The cyclin D1 gene is a target of the beta-catenin/LEF-1 pathway. Proc Natl Acad Sci USA. 1999 May 11; 96(10):5522-7; d. Lin S Y, et al., Beta-catenin, a novel prognostic marker for breast cancer: its roles in cyclin D1 expression and cancer progression. Proc Natl Acad Sci USA. 2000 Apr. 11; 97(8):4262-6), c-myc (a. He T C, et al., Identification of c-MYC as a target of the APC pathway. Science. 1998 September 4; 281(5382):1509-12; b. Sansom O J, et al., Myc deletion rescues Ape deficiency in the small intestine. Nature. 2007 Apr. 5; 446(7136):676-9), and LEF1 (Hovanes K, et al., Beta-catenin-sensitive isoforms of lymphoid enhancer factor-1 are selectively expressed in colon cancer. Nat Genet. 2001 May; 28(1):53-7.; Filali M, et al., Wnt-3A/beta-catenin signaling induces transcription from the LEF-1 promoter. J Biol Chem. 2002 Sep. 6; 277(36):33398-410; Li T W, et al., Wnt activation and alternative promoter repression of LEF1 in colon cancer. Mol Cell Biol. 2006 July; 26(14):5284-99; Nguyen D X, et al., WNT/TCF signaling through LEF1 and HOXB9 mediates lung adenocarcinoma metastasis. Cell. 2009 Jul. […] Quantitative real-time PCR studies were also conducted to evaluate the inhibitory effects of 4 on the mRNA levels of Wnt target genes.
Quantitative real time PCR analysis. SW480 cells at 1×10^6/mL were treated with different concentrations of 4 for 24 h. […] Quantitative PCR (qPCR) was performed using the iQ™ SYBR green supernix kit (170-8880, BIO-RAD) on an iQ^5 multicolor real-time PCR reaction system (BIO-RAD). […]

SMILES: Cl.Cl.O=C(Nc1ccc(O[C@@H]2CCNC2)c(-c2cccc(-c3nn[nH]n3)c2)c1)c1ccc(O[C@H]2CCNC2)c(-c2ccc(F)c(F)c2)c1 [Compound 4, 3′,4′-difluoro-6-(((S)-pyrrolidin-3-yl)oxy)-N-(6-(((R)-pyrrolidin-3-yl)oxy)-3′-(2H-tetrazol-5-yl)-[1,1′-biphenyl]-3-yl)-[1,1′-biphenyl]-3-carboxamide dihydrochloride]
- IC50 (HCT116): 55 ± 7.4 µM
- mRNA of house-keeper gene HERT [1]: did not inhibit
- transcription of Axin2 [1]: dose-dependently inhibit
- transcription of LEF1 [1]: dose-dependently inhibit
- transcription of cyclin D1 [1]: dose-dependently inhibit
